Results on twelve compounds are retold here after patent publication US20100105655A1, “NOVEL COMPOUNDS 515” (ASTRAZENECA AB, priority 2008, published 2010).

The pIC50 is the negative decadic logarithm of the IC50, by convention in mol/L.

pIC50: −log10 of the molar value.

For the assay, the target named is T1, IGFR kinase (Homo sapiens, UniProt P08069).
T1 construct: purchased Millipore
T1 sequence (P08069 31-1367): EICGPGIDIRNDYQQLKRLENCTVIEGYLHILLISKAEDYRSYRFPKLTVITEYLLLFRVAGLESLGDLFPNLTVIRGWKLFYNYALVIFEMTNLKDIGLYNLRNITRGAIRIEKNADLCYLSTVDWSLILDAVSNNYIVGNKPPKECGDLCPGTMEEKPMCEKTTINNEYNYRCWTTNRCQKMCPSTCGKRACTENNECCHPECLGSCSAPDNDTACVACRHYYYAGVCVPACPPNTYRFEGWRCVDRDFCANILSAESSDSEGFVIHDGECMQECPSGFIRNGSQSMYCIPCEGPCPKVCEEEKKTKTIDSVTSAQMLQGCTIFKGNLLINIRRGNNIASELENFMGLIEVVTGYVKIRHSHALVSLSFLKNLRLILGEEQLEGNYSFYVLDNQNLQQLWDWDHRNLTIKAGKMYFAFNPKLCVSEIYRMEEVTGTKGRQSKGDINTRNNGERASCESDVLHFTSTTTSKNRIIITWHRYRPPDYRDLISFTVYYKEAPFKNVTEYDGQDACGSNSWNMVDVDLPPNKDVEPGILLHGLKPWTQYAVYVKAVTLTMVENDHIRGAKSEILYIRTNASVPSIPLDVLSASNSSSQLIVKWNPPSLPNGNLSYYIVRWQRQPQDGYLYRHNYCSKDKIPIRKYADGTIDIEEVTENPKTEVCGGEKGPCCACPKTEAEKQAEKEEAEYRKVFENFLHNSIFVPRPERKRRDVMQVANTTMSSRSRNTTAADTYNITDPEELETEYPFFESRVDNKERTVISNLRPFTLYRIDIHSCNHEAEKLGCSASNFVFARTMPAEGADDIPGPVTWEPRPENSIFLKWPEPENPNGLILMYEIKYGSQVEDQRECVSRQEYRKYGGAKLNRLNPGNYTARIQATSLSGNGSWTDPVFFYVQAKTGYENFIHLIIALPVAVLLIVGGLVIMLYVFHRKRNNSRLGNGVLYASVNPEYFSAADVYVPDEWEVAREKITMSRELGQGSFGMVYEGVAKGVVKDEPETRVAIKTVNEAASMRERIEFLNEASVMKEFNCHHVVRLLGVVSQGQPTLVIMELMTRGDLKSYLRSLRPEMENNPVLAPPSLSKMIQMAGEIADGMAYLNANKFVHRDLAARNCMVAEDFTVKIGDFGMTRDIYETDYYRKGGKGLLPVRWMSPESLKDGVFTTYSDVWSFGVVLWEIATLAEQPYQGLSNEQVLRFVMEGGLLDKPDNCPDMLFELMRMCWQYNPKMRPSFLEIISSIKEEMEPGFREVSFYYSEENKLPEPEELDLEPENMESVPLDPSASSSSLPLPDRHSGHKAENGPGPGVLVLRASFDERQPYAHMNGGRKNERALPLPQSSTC
The assay can be described thus: Enzyme assay (c), IGFR kinase, Caliper LabChip. Format: biochemical. Conditions: 30 nM IGFR kinase, 6 uM ATP, 3 uM peptide mix; read-out: IGFR IC50.
Turning to `COc1cc(N2CCN(C(C)=O)CC2)ccc1Nc1ncc(OC)c(-c2cnc3ccccn23)n1` [Example 92, 1-[4-[4-[(4-imidazo[1,2-a]pyridin-3-yl-5-methoxy-pyrimidin-2-yl)amino]-3-methoxy-phenyl]piperazin-1-yl]ethanone], the pIC50 was 7.05. The same measure for `COc1cc(OC[C@H]2CCCN2)ccc1Nc1ncc(C)c(-c2cnc3ccccn23)n1` [Example 102, 4-imidazo[1,2-a]pyridin-3-yl-N-[2-methoxy-4-[[(2R)-pyrrolidin-2-yl]methoxy]phenyl]-5-methyl-pyrimidin-2-amine]: 7.27; for `COc1cc(C2CCN(C(=O)N(C)CCO)CC2)ccc1Nc1ncc(Cl)c(-c2cnc3ccccn23)n1` [Example 58, 4-[4-[(5-chloro-4-imidazo[1,2-a]pyridin-3-yl-pyrimidin-2-yl)amino]-3-methoxy-phenyl]-N-(2-hydroxyethyl)-N-methyl-piperidine-1-carboxamide]: 8.22. The same measure for `COc1cc(N2CC[C@H](O)C2)ccc1Nc1ncc(F)c(-c2cnc3ccccn23)n1` [Example 83, (3S)-1-[4-[(5-fluoro-4-imidazo[1,2-a]pyridin-3-yl-pyrimidin-2-yl)amino]-3-methoxy-phenyl]pyrrolidin-3-ol]: 6.78. Turning to `COc1cc(C2CN(C(=O)[C@H](C)O)C2)ccc1Nc1ncc(Cl)c(-c2cnn3ccccc23)n1` [Example 135A], the pIC50 was 7.96.

With `COc1cc(N2CCN(C(=O)[C@@H]3C[C@@H](O)CN3)CC2)ccc1Nc1ncc(Cl)c(-c2cnc3ccccn23)n1` [Example 24.9, [4-[4-[(5-chloro-4-imidazo[1,2-a]pyridin-3-yl-pyrimidin-2-yl)amino]-3-methoxy-phenyl]piperazin-1-yl]-[(2S,4R)-4-hydroxypyrrolidin-2-yl]methanone], the pIC50 was 8.22. On to `COc1cc(OCC(=O)N(C)C)ccc1Nc1ncc(Cl)c(-c2cnc3c(F)cccn23)n1` [Example 217, 2-[4-[[5-chloro-4-(8-fluoroimidazo[1,2-a]pyridin-3-yl)pyrimidin-2-yl]amino]-3-methoxy-phenoxy]-N,N-dimethyl-acetamide], for which the negative logarithm of the IC50 (pIC50) was 8.00.

In the case of `COc1cc(N2CCN(C[C@@H](O)CO)CC2)ccc1Nc1ncc(C)c(-c2cnc3ccccn23)n1` [Example 267, (2R)-3-[4-[4-[(4-imidazo[1,2-a]pyridin-3-yl-5-methyl-pyrimidin-2-yl)amino]-3-methoxy-phenyl]piperazin-1-yl]propane-1,2-diol], the pIC50 is 7.57.

As to `COc1cc(C2CCN(C(C)=O)CC2)ccc1Nc1ncc(C(F)(F)F)c(-c2cnc3ccccn23)n1` [Example 108, 1-[4-[4-[[4-imidazo[1,2-a]pyridin-3-yl-5-(trifluoromethyl)pyrimidin-2-yl]amino]-3-methoxy-phenyl]-1-piperidyl]ethanone], the negative-log IC50 (pIC50) was 7.85.

As to `COc1cc(CNCCO)ccc1Nc1ncc(Cl)c(-c2cnc3ccccn23)n1` [Example 21.1, 2-[[4-[(5-chloro-4-imidazo[1,2-a]pyridin-3-yl-pyrimidin-2-yl)amino]-3-methoxy-phenyl]methylamino]ethanol], the pIC50 was 7.72.

As to `COc1cc(N2CC3CN(CCO)CC(C2)O3)ccc1Nc1ncc(Cl)c(-c2cnc3c(F)cccn23)n1` [Example 184, 2-[7-[4-[[5-chloro-4-(8-fluoroimidazo[1,2-a]pyridin-3-yl)pyrimidin-2-yl]amino]-3-methoxy-phenyl]-9-oxa-3,7-diazabicyclo[3.3.1]nonan-3-yl]ethanol], the pIC50 is 8.15. Under `COc1cc(N2CCN(C(=O)[C@@H](N)C(C)C)CC2)ccc1Nc1ncc(Cl)c(-c2cnc3ccccn23)n1` [Example 24.6, (2S)-2-amino-1-[4-[4-[(5-chloro-4-imidazo[1,2-a]pyridin-3-yl-pyrimidin-2-yl)amino]-3-methoxy-phenyl]piperazin-1-yl]-3-methyl-butan-1-one] stands 8.22.
